Experimental data from the supplement of paper PMC10307832.

Assays:
Test in all cases: relative viability (nuclei count vs DMSO), 5 days (fraction); higher = more cells survive
[1] = system: CAL-12T
Method in brief: (§1)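 Nuclei were stained with Hoechst during a one-step fixation (final 0.05% Triton X-100, 1% formaldehyde, 1 ug/ml Hoechst) carried out 5 days after dosing, then counted on 4× images. The cells, lung cancer lines in 1536-well plates, had been dosed by pin tool the day after seeding with one drug alone or a fixed anchor-drug dose plus five library-drug doses (not always all listed) in √10 steps. Relative viability is the nuclei count in treated wells divided by that in vehicle wells, and each value is the median of duplicate plates.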

[2] = system: HCC-44
Method in brief: as §1

[3] = system: COR-L23
Method in brief: as §1

[4] = system: PC-14
Method in brief: as §1

[5] = system: LU99A
Method in brief: as §1

[6] = system: NCI-H522
Method in brief: as §1

[7] = system: HCC-15
Method in brief: as §1

[8] = system: NCI-H2087
Method in brief: as §1

[9] = system: SK-MES-1
Method in brief: as §1

[10] = system: HARA
Method in brief: as §1

[11] = system: NCI-H2170
Method in brief: as §1

[12] = system: LC-2-ad
Method in brief: as §1

[13] = system: HCC-827
Method in brief: as §1

[14] = system: HOP-62
Method in brief: as §1

[15] = system: LXF-289
Method in brief: as §1

[16] = system: LCLC-97TM1
Method in brief: as §1

[17] = system: COR-L 105
Method in brief: as §1

[18] = system: NCI-H1993
Method in brief: as §1

[19] = system: HCC-366
Method in brief: as §1

[20] = system: NCI-H2009
Method in brief: as §1

[21] = system: NCI-H2126
Method in brief: as §1

[22] = system: PC-3 [JPC-3]
Method in brief: as §1

For COCC1(CO)C(=O)C2CCN1CC2 (stereo not drawn) [PRIMA-1MET] + CC(=O)Nc1cccc(-n2c(=O)n(C3CC3)c(=O)c3c(Nc4ccc(I)cc4F)n(C)c(=O)c(C)c32)c1 [Trametinib] (partner 0.02 µM), the relative viability ([1]; first compound 0.2 µM) was 0.274, the relative viability ([1]; first compound 0.6325 µM) was 0.319 and the relative viability ([1]; first compound 2 µM) was 0.313. It also gave a relative viability ([1]; first compound 6.325 µM) of 0.235, a relative viability ([1]; first compound 20 µM) of 0.15 and a relative viability ([2]; first compound 0.2 µM) of 1.01. It also gave a relative viability ([2]; first compound 0.6325 µM) of 0.951, a relative viability ([2]; first compound 2 µM) of 1.12 and a relative viability ([2]; first compound 6.325 µM) of 1.07. The relative viability ([2]; first compound 20 µM) was 1.03, the relative viability ([3]; first compound 0.2 µM) was 0.247 and the relative viability ([3]; first compound 0.6325 µM) was 0.532. For the same compound, the relative viability ([3]; first compound 2 µM) was 0.495, the relative viability ([3]; first compound 6.325 µM) was 0.357 and the relative viability ([3]; first compound 20 µM) was 0.0237. For the same compound, the relative viability ([4]; first compound 0.2 µM) was 0.921, the relative viability ([4]; first compound 0.6325 µM) was 0.618 and the relative viability ([4]; first compound 2 µM) was 0.97. It also gave a relative viability ([4]; first compound 6.325 µM) of 0.693, a relative viability ([4]; first compound 20 µM) of 0.615 and a relative viability ([5]; first compound 0.2 µM) of 0.314. For the same compound, the relative viability ([5]; first compound 0.6325 µM) was 0.573, the relative viability ([5]; first compound 2 µM) was 0.502 and the relative viability ([5]; first compound 6.325 µM) was 0.261. It also gave a relative viability ([5]; first compound 20 µM) of 0.21, a relative viability ([6]; first compound 0.2 µM) of 0.655 and a relative viability ([6]; first compound 0.6325 µM) of 0.673. For the same compound, the relative viability ([6]; first compound 2 µM) was 0.528, the relative viability ([6]; first compound 6.325 µM) was 0.717 and the relative viability ([6]; first compound 20 µM) was 0.121. It also gave a relative viability ([7]; first compound 0.2 µM) of 0.37, a relative viability ([7]; first compound 0.6325 µM) of 0.346 and a relative viability ([7]; first compound 2 µM) of 0.37. The relative viability ([7]; first compound 6.325 µM) was 0.328, the relative viability ([7]; first compound 20 µM) was 0.31 and the relative viability ([8]; first compound 0.6325 µM) was 0.185. The relative viability ([8]; first compound 2 µM) was 0.19, the relative viability ([8]; first compound 6.325 µM) was 0.168 and the relative viability ([8]; first compound 20 µM) was 0.117. For the same compound, the relative viability ([9]; first compound 0.2 µM) was 0.609, the relative viability ([9]; first compound 0.6325 µM) was 0.538 and the relative viability ([9]; first compound 2 µM) was 0.549. The relative viability ([9]; first compound 6.325 µM) was 0.624, the relative viability ([9]; first compound 20 µM) was 0.592 and the relative viability ([10]; first compound 0.2 µM) was 0.403. For the same compound, the relative viability ([10]; first compound 0.6325 µM) was 0.754, the relative viability ([10]; first compound 2 µM) was 0.647 and the relative viability ([10]; first compound 6.325 µM) was 0.529. It also gave a relative viability ([10]; first compound 20 µM) of 0.736, a relative viability ([11]; first compound 0.2 µM) of 0.914 and a relative viability ([11]; first compound 0.6325 µM) of 0.911. The relative viability ([11]; first compound 2 µM) was 0.887, the relative viability ([11]; first compound 6.325 µM) was 0.975 and the relative viability ([11]; first compound 20 µM) was 0.964. The relative viability ([12]; first compound 0.2 µM) was 0.82, the relative viability ([12]; first compound 0.6325 µM) was 0.914 and the relative viability ([12]; first compound 2 µM) was 0.924. It also gave a relative viability ([12]; first compound 6.325 µM) of 0.878, a relative viability ([12]; first compound 20 µM) of 0.905 and a relative viability ([13]; first compound 0.2 µM) of 0.443. It also gave a relative viability ([13]; first compound 0.6325 µM) of 0.523, a relative viability ([13]; first compound 2 µM) of 0.474 and a relative viability ([13]; first compound 6.325 µM) of 0.461. For the same compound, the relative viability ([13]; first compound 20 µM) was 0.481, the relative viability ([14]; first compound 0.2 µM) was 0.217 and the relative viability ([14]; first compound 0.6325 µM) was 0.34. It also gave a relative viability ([14]; first compound 2 µM) of 0.334, a relative viability ([14]; first compound 6.325 µM) of 0.344 and a relative viability ([14]; first compound 20 µM) of 0.364. For the same compound, the relative viability ([15]; first compound 0.2 µM) was 0.582, the relative viability ([15]; first compound 0.6325 µM) was 0.591 and the relative viability ([15]; first compound 2 µM) was 0.67. The relative viability ([15]; first compound 6.325 µM) was 0.651, the relative viability ([15]; first compound 20 µM) was 0.659 and the relative viability ([16]; first compound 0.2 µM) was 0.133. It also gave a relative viability ([16]; first compound 0.6325 µM) of 0.163, a relative viability ([16]; first compound 2 µM) of 0.179 and a relative viability ([16]; first compound 6.325 µM) of 0.151. For the same compound, the relative viability ([16]; first compound 20 µM) was 0.197, the relative viability ([17]; first compound 0.2 µM) was 0.464 and the relative viability ([17]; first compound 0.6325 µM) was 0.421. For the same compound, the relative viability ([17]; first compound 2 µM) was 0.378, the relative viability ([17]; first compound 6.325 µM) was 0.438 and the relative viability ([17]; first compound 20 µM) was 0.108. For the same compound, the relative viability ([18]; first compound 0.2 µM) was 0.619, the relative viability ([18]; first compound 2 µM) was 0.588 and the relative viability ([18]; first compound 6.325 µM) was 0.534. It also gave a relative viability ([18]; first compound 20 µM) of 0.514, a relative viability ([19]; first compound 0.2 µM) of 0.288 and a relative viability ([19]; first compound 0.6325 µM) of 0.289. For the same compound, the relative viability ([19]; first compound 2 µM) was 0.263, the relative viability ([19]; first compound 6.325 µM) was 0.431 and the relative viability ([19]; first compound 20 µM) was 0.0205. It also gave a relative viability ([20]; first compound 0.2 µM) of 0.246, a relative viability ([20]; first compound 0.6325 µM) of 0.306 and a relative viability ([20]; first compound 2 µM) of 0.237. The relative viability ([20]; first compound 6.325 µM) was 0.252, the relative viability ([20]; first compound 20 µM) was 0.0028 and the relative viability ([21]; first compound 0.2 µM) was 0.604. The relative viability ([21]; first compound 0.6325 µM) was 0.47, the relative viability ([21]; first compound 2 µM) was 0.597 and the relative viability ([21]; first compound 6.325 µM) was 0.577. The relative viability ([21]; first compound 20 µM) was 0.543, the relative viability ([22]; first compound 0.2 µM) was 0.757 and the relative viability ([22]; first compound 0.6325 µM) was 0.667. For the same compound, the relative viability ([22]; first compound 2 µM) was 0.733, the relative viability ([22]; first compound 6.325 µM) was 0.696 and the relative viability ([22]; first compound 20 µM) was 0.614.
